Data on 13 molecules can be found in patent US8344028B2, “Gamma-amino-butyric acid derivatives as GABAB receptor ligands” (XenoPort, Inc., priority 2009, dated 2013).

Assay [1] has as its target T1, recombinant human GABABR1a2 (Homo sapiens, UniProt Q9UBS5).
T1 construct: expressed in transfected cells; host or cells: HEK cells
The assay is described as follows: cAMP assay for determining GABAB receptor agonist activity. It is filed as cell-based. The settings on record: cells expressing recombinant human GABABR1a2; read-out: cAMP EC50. On the procedure:
The following procedure was used to determine the level of intracellular cAMP. Recombinant HEK cells expressing the GABAB R1a2 receptor were used in the experiments. cAMP levels were measured using a cAMP XS^+ HitHunter™ Chemiluminescence Assay Kit (90-0075-02, GE Healthcare Biosciences Corp.). Cells were seeded overnight at 5,000 cells per well, in black, clear bottom 96-well plates. The following morning, cells were washed twice with 100 μL PBS per well. Forskolin was weighed out and dissolved in DMSO to a final concentration 100 mM. One-hundred (100) μM forskolin solutions were prepared in PBS with and without test compound at 1-times final concentration. Thirty (30) μL of the test solutions were added to the wells and incubated for 1 h at room temperature. The cAMP concentration was determined according to the protocol described in the cAMP assay kit, maintaining the plate at room temperature and in the dark. Two hours after the final kit reagent was added, the plate bottom was covered with black tape, and the plate read using a 1450 MicroBeta Trilux microplate scintillation and luminescence counter (PerkinElmer, Waltham, Mass.). Each well was read for 6 seconds. The untransformed data was then analyzed.

The target of assay [2] is T2, GABAB receptor (Rattus norvegicus, UniProt Q9Z0U4).
T2 construct: from tissue; host or cells: rat cerebral cortex membranes
T2 sequence (Q9Z0U4 20-960): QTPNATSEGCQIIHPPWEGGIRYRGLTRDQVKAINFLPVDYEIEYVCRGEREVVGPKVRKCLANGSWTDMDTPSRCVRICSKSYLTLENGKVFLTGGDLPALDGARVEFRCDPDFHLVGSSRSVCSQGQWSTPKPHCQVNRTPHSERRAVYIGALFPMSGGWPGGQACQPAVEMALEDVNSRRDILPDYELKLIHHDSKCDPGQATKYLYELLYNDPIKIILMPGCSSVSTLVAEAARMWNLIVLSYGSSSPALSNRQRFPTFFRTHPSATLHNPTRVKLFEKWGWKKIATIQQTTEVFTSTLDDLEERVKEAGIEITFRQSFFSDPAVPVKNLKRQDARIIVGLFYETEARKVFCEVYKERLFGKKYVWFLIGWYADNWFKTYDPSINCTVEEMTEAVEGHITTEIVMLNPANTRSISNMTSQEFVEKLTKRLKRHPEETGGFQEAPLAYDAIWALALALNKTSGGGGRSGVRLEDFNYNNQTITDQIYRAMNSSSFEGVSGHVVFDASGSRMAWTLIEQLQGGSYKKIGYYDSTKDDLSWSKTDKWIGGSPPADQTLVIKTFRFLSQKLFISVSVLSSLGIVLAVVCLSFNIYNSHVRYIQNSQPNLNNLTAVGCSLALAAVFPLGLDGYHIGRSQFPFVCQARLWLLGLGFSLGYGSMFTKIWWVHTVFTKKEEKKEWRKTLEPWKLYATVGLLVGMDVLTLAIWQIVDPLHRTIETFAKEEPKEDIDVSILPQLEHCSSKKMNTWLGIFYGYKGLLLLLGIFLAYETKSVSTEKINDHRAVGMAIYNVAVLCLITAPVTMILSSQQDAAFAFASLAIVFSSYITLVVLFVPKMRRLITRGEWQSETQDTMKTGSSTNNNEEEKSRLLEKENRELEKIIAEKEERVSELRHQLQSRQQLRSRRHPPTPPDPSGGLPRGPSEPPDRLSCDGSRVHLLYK
T2 sequence (O88871 41-940 partner): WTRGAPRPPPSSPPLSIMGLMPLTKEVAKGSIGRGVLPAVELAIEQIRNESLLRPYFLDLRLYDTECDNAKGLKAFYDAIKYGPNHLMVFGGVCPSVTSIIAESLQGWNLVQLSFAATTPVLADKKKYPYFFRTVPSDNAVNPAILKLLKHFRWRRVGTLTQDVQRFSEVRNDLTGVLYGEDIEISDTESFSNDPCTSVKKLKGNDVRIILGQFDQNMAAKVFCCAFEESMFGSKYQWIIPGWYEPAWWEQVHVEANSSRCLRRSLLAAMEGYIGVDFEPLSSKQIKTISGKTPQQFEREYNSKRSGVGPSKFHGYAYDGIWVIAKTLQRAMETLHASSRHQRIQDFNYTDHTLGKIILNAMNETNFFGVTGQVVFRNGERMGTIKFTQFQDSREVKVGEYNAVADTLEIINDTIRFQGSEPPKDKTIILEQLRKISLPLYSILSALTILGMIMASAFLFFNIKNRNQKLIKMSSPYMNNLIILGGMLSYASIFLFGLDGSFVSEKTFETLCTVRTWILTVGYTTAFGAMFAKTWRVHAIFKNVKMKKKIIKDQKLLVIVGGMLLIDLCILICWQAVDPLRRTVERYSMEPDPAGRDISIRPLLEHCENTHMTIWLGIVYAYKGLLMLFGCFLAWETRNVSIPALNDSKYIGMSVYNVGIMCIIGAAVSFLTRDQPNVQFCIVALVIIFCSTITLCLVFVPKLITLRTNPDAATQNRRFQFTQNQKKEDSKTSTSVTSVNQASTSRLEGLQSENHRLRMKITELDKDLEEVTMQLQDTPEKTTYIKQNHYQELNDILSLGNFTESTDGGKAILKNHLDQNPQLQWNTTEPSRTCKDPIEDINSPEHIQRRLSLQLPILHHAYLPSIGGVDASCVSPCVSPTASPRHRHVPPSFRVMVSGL
The assay is described as follows: [3H]CGP54626 rat brain GABAB receptor binding assay. Particulars: [3H]CGP54626 rat brain binding assay. On the procedure: An assay using rat cerebral cortex membranes was used to determine the affinity of GABAB receptor ligands for the GABAB receptor.
An assay buffer of 50 mM Tris pH 7.4 was prepared with 100 μM of isoguvacine, to block GABAA interactions. The assay buffer with isoguvacine was used for dilution of membranes, compounds, and radiolabel.
Rat cerebral cortex membranes were diluted in assay buffer at 1 mg/mL and aliquoted into a 96-well plate at 900 μL/well. Buffer or test compound were added at 20-times final concentration in the buffer at 50 μL/well. Membranes and test compounds or buffer were incubated for 10 min. at room temperature. Radiolableled [S—(R*,R*)]-[3-[[1-(3,4-dichlorophenyl)ethyl]amino]-2-hydroxypropyl](cyclohexylmethyl) phosphinic acid (CGP54626) was then added at 50 μL/well in the buffer at 1-10 nM concentration in 50 μl. The mixture was incubated for 15 min. at room temperature. The assay mixture was filtered using Brandell filtration apparatus and GFB filters, washed twice with 3 mL of 4° C., 50 mM Tris pH 7.4, buffer without isoguvacine. The filters were then dried at room temperature and the dried filters punched out and placed in individual vials. Three (3) mL of scintillation fluid was added to each vial and the radiolabel counted on the scintillation counter. The inverse amount of radiolabel was indicative of binding of a test compound to the GABAB receptor.

Assay [3] concerns the target GABAB receptor (Homo sapiens, UniProt Q9UBS5). The assay can be described thus: GABAB receptor agonist or partial agonist activity by binding, electrophysiology, cAMP and/or Ca2+ assay methods (Examples 83-86). It is filed as cell-based. An outline of the steps:
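Binding: rat cortex membranes in 50 mM Tris pH 7.4 with 100 μM isoguvacine were preincubated 10 min at RT with compound, then radiolabeled CGP54626 (1-10 nM) was added; filtered and scintillation-counted. cAMP: GABAB R1a2 HEK cells, 1 h RT with 100 μM forskolin, chemiluminescence.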

The target in assay [4] is T1, recombinant human GABABR1a2. The assay can be described thus: Ca2+ assay for determining GABAB receptor agonist activity. The assay is classed as cell-based. Particulars: cells expressing recombinant human GABABR1a2. The procedure: The following procedure was used to determine the GABAB receptor agonist activity of a compound as reflected by activation of Ca^2+ signaling. HEK TREx cells expressing GABABR1a2 under tetracycline induction control, and Gqi chimeric protein (expressed constitutively), allowing GABABR coupling through the Ca^2+ signaling pathway were used in the experiments.
Cells were seeded in media containing tetracycline overnight at 100,000 cells/well, in black, clear-bottom, 96-well plates. The following morning, cells were washed twice with 100 μL HBSS buffer per well. Fluorescent Ca^2+ indicator dye was prepared using the materials and procedure described in the F362056 Fluo-4 NW Calcium Assay Kit (Invitrogen, Carlsbad, Calif.). Ten (10) mL of kit buffer and 100 μl of kit Probenecid were added to individual kit dye vials, and rolled back and forth several times to dissolve the dye. Cells were then loaded into the dye solution at 50 μL per well. The cells and dye were incubated for 30 min at 37° C., and then incubated for an additional 30 min at room temperature in the dark. Test compounds are dissolved in HBSS buffer at twice final concentration. Duplicate wells were used for each unique condition. Solution containing the test compound was added to the wells using a FLEXStation II (Molecular Devices, Sunnyvale, Calif.). Using the instrument in kinetic mode in which each well was read every 2 sec over a total collection time of 50 sec fluorescence was measured using an excitation wavelength 494 nm and a detection wavelength of 516 nm. A normalized fluorescence value for each well was calculated using the following procedure. The difference in fluorescence at 35 sec (usually representing maximal response) and at 15 sec (a time point prior to addition of test compounds) was calculated, divided by the fluorescence at 15 sec, and the result multiplied by 100. The final value represented the percent increase in fluorescence relative to the fluorescence at 15 sec. Data was analyzed using standard procedures.

T1 sequence (Q9UBS5 15-961 limits assumed): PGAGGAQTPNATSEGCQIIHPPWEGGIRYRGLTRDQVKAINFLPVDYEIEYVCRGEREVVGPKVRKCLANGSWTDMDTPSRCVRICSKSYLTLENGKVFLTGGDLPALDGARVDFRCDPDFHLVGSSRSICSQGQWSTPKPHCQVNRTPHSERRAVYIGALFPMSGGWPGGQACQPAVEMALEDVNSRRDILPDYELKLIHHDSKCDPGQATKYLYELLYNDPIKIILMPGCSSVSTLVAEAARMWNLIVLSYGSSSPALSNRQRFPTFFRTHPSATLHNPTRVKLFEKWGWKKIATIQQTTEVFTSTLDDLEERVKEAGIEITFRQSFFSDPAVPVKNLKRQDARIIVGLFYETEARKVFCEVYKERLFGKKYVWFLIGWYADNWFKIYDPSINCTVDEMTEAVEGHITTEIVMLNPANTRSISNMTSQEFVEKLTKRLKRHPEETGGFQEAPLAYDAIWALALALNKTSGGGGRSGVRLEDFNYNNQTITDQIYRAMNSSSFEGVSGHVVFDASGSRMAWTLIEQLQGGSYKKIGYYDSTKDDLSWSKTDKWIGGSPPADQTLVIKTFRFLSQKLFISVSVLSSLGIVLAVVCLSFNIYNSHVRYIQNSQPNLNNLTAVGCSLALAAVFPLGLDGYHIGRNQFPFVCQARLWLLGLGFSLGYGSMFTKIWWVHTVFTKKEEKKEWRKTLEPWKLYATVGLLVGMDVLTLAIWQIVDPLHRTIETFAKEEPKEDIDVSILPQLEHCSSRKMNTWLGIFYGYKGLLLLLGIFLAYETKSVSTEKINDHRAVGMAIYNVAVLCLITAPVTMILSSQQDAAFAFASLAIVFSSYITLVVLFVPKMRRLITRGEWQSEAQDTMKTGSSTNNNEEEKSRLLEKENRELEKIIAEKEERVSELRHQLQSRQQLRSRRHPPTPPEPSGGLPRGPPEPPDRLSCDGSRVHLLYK
T1 sequence (O75899 42-941 partner): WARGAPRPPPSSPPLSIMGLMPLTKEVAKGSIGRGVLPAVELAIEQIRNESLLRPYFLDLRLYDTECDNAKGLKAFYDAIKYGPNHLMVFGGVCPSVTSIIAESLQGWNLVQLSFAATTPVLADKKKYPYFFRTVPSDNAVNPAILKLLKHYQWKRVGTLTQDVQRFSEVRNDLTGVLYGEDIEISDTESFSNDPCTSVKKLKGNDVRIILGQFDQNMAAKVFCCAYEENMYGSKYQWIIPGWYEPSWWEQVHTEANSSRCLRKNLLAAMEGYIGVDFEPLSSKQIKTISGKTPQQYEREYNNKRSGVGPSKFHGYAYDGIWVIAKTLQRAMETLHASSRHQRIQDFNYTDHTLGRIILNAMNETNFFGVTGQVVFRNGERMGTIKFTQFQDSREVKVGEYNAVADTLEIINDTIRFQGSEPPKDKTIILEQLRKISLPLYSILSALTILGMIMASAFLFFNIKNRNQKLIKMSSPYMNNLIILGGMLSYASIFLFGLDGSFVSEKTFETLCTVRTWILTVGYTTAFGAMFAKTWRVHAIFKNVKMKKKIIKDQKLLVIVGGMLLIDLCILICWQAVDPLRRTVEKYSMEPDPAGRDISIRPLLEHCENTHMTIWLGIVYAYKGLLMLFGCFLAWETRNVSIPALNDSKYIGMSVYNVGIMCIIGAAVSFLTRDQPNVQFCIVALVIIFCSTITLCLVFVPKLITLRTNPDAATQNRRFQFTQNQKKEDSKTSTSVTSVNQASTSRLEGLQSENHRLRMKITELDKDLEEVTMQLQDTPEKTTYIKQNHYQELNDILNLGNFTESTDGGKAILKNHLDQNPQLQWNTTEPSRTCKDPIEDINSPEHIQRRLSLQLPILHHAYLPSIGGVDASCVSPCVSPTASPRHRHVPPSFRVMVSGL
Sequence of GABAB receptor (Homo sapiens, UniProt Q9UBS5) (Q9UBS5 20-961): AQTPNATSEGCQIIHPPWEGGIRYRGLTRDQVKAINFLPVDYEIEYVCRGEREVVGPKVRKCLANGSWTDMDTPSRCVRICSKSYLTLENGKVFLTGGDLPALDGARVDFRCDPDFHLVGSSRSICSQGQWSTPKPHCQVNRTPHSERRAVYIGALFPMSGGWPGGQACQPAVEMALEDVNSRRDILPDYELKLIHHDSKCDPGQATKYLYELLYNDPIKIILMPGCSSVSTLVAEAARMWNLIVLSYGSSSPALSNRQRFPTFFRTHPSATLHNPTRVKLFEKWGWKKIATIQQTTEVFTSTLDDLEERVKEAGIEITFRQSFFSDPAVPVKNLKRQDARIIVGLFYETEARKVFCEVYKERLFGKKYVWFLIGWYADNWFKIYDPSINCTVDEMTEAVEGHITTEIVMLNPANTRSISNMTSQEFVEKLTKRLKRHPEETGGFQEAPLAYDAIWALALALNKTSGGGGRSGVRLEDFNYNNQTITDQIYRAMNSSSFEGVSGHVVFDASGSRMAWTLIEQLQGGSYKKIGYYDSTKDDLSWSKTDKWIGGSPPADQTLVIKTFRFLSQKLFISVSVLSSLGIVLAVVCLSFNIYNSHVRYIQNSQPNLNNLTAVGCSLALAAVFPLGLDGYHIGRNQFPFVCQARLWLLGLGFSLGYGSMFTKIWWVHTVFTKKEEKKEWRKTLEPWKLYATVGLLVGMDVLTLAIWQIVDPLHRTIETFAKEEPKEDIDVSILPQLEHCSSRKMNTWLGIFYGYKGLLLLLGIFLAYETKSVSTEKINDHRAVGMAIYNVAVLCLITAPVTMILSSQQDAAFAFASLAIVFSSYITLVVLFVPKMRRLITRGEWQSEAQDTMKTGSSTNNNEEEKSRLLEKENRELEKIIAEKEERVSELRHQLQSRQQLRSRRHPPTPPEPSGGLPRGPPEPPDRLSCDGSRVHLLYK
Sequence of GABAB receptor (Homo sapiens, UniProt Q9UBS5) (O75899 42-941 partner): as the sequence (O75899 42-941 partner) above

Take `Cl.N#Cc1cc(F)cc(-c2cc([C@H](CN)CC(=O)O)ccc2Cl)c1` [(3R)-4-amino-3-[4-chloro-3-(3-cyano-5-fluorophenyl)phenyl]butanoic acid hydrochloride]: the EC50 in assay [1] is < 0.1 µM; in assay [4] it was < 0.7 µM. In addition, the IC50 at GABAB receptor [2] is < 25 µM. Also, at GABAB receptor [3], the “GABAB receptor agonist or partial agonist activity” value is reported as “agonist or partial agonist activity”.
For `Cc1ccc(C#N)cc1-c1cc([C@H](CN)CC(=O)O)ccc1Cl.Cl` [(3R)-4-amino-3-[4-chloro-3-(3-cyano-6-methylphenyl)phenyl]butanoic acid hydrochloride] the same measures were < 0.1 µM, < 0.7 µM, < 25 µM and “agonist or partial agonist activity”.
On to `Cl.NC[C@H](CC(=O)O)c1ccc(Cl)c(-c2cc(C(=O)O)ccc2Cl)c1` [Example 46, 3-{5-[(1R)-2-Amino-1-(carboxymethyl)ethyl]-2-chlorophenyl}-4-chlorobenzoic acid hydrochloride], for which the concentration giving a half-maximal response (EC50) was < 0.1 µM in assay [1] and < 0.7 µM in assay [4]. At GABAB receptor [2], the IC50 is < 25 µM. Further, on GABAB receptor [3], the “GABAB receptor agonist or partial agonist activity” value is recorded as “agonist or partial agonist activity”.
For the molecule `Cl.NC[C@H](CC(=O)O)c1ccc(Cl)c(-c2cccc([N+](=O)[O-])c2)c1` [Example 37, (3R)-4-Amino-3-[4-chloro-3-(3-nitrophenyl)phenyl]butanoic acid hydrochloride], the results for the EC50 in assay [1] and in assay [4] were < 0.1 µM and < 0.7 µM, respectively. At GABAB receptor [2], the 50% inhibitory concentration (IC50) is < 25 µM. Moreover, the “GABAB receptor agonist or partial agonist activity” value at GABAB receptor [3] was “agonist or partial agonist activity”.
Take `Cl.NC[C@H](CC(=O)O)c1ccc(Cl)c(-c2csc(C(=O)O)c2)c1` [Example 27, 4-{5-[(1R)-2-Amino-1-(carboxymethyl)ethyl]-2-chlorophenyl}thiophene-2-carboxylic acid hydrochloride]: the concentration giving a half-maximal response (EC50) was < 0.1 µM in assay [1] and < 0.7 µM in assay [4]. In addition, the IC50 at GABAB receptor [2] was < 25 µM. The “GABAB receptor agonist or partial agonist activity” value at GABAB receptor [3] is on record as “agonist or partial agonist activity”.
For `Cl.NC[C@H](CC(=O)O)c1ccc(Cl)c(-c2ccc(F)c(C(=O)O)c2)c1` [5-{5-[(1R)-2-amino-1-(carboxymethyl)ethyl]-2-chlorophenyl}-2-fluorobenzoic acid hydrochloride], the results for the EC50 in assay [1] and in assay [4] were < 0.1 µM and < 0.7 µM, respectively. Also, the IC50 on GABAB receptor [2] is < 25 µM. Moreover, on GABAB receptor [3], the “GABAB receptor agonist or partial agonist activity” value is “agonist or partial agonist activity”.
In the same order, the values of `Cl.N#Cc1ccc(Cl)c(-c2cc([C@H](CN)CC(=O)O)ccc2Cl)c1` [(3R)-4-amino-3-[4-chloro-3-(6-chloro-3-cyanophenyl)phenyl]butanoic acid hydrochloride] are < 0.1 µM, < 0.7 µM, < 25 µM and “agonist or partial agonist activity”.
For `Cl.NC[C@H](CC(=O)O)c1ccc(Cl)c(-c2cccc(C(N)=O)c2)c1` [Example 52, (3R)-4-Amino-3-[3-(3-carbamoylphenyl)-4-chlorophenyl]butanoic acid hydrochloride], the results for the EC50 in assay [1] and in assay [4] were < 0.1 µM and < 0.7 µM, respectively. Besides, the half-maximal inhibitory concentration (IC50) on GABAB receptor [2] is < 25 µM. The “GABAB receptor agonist or partial agonist activity” value on GABAB receptor [3] is “agonist or partial agonist activity”.
Consider `Cl.NC[C@H](CC(=O)O)c1ccc(Cl)c(NCc2ccncc2)c1` [Example 57, (3R)-4-Amino-3-{4-chloro-3-[(4-pyridylmethyl)amino]phenyl}butanoic acid hydrochloride], for which the values for the EC50 in assay [1] and in assay [4] were < 0.1 µM and < 0.7 µM, respectively. Also, the concentration for half-maximal inhibition (IC50) at GABAB receptor [2] was < 25 µM. Besides, the “GABAB receptor agonist or partial agonist activity” value on GABAB receptor [3] is “agonist or partial agonist activity”.
For `Cl.NC[C@H](CC(=O)O)c1ccc(Cl)c(OCc2cccnc2)c1` [(3R)-4-amino-3-[4-chloro-3-(3-pyridylmethoxy)phenyl]butanoic acid hydrochloride] the same measures were < 0.1 µM, < 0.7 µM, < 25 µM and “agonist or partial agonist activity”.
With `Cl.NC[C@H](CC(=O)O)c1ccc(Cl)c(-c2cc(F)cc(C(=O)O)c2)c1` [Example 50, 3-{5-[(1R)-2-Amino-1-(carboxymethyl)ethyl]-2-chlorophenyl}-5-fluorobenzoic acid hydrochloride], the 50% effective concentration (EC50) in assay [1] was < 0.1 µM; in assay [4] it was < 0.7 µM. For the same molecule, the IC50 at GABAB receptor [2] was < 25 µM. Further, on GABAB receptor [3], the “GABAB receptor agonist or partial agonist activity” value is listed as “agonist or partial agonist activity”.
In the case of `Cc1ccncc1-c1cc([C@H](CN)CC(=O)O)ccc1Cl.Cl` [(3R)-4-amino-3-[4-chloro-3-(4-methyl(3-pyridyl))phenyl]butanoic acid hydrochloride], the results for the half-maximal effective concentration (EC50) in assay [1] and in assay [4] were < 0.1 µM and < 0.7 µM, respectively. Further, the IC50 at GABAB receptor [2] was < 25 µM. Moreover, the “GABAB receptor agonist or partial agonist activity” value at GABAB receptor [3] was “agonist or partial agonist activity”.
Regarding `Cl.N#Cc1ccc(F)c(-c2cc([C@H](CN)CC(=O)O)ccc2Cl)c1` [(3R)-4-amino-3-[4-chloro-3-(3-cyano-6-fluorophenyl)phenyl]butanoic acid hydrochloride], the half-maximal effective concentration (EC50) in assay [1] is < 0.1 µM; in assay [4], < 0.7 µM. Besides, the concentration for half-maximal inhibition (IC50) on GABAB receptor [2] is < 25 µM. Moreover, the “GABAB receptor agonist or partial agonist activity” value at GABAB receptor [3] is given as “agonist or partial agonist activity”.
